# PubChem BioAssay (NCI)
# Where “and” joins values, the source holds several entries; their conditions need not be identical. Identical values can stand only once.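 Dose response: 5 concentrations. Exposure: 48 h. Format: 96-well plates. Endpoint: linear interpolation; highest concentration if not reached. At the GI50, growth is halved. The concentration for full growth arrest is given as TGI.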
# Columns and labels:
# Assay in all cases: inhibition of tumour cell growth, NCI panel, 48 h
# 786-0 renal = tested on: 786-0 renal
# A549 NSCLC = tested on: A549 NSCLC
# COLO 205 colon = tested on: COLO 205 colon
# HCC-2998 colon = tested on: HCC-2998 colon
# K-562 leukemia = tested on: K-562 leukemia
# OVCAR-3 ovarian = tested on: OVCAR-3 ovarian
# PC-3 prostate = tested on: PC-3 prostate
# SF-268 CNS = tested on: SF-268 CNS
# SK-MEL-2 melanoma = tested on: SK-MEL-2 melanoma
# UACC-62 melanoma = tested on: UACC-62 melanoma
SMILES,GI50 (786-0 renal),TGI (786-0 renal),GI50 (A549 NSCLC),TGI (A549 NSCLC),GI50 (COLO 205 colon),TGI (COLO 205 colon),GI50 (HCC-2998 colon),TGI (HCC-2998 colon),GI50 (K-562 leukemia),TGI (K-562 leukemia),GI50 (OVCAR-3 ovarian),TGI (OVCAR-3 ovarian),GI50 (PC-3 prostate),TGI (PC-3 prostate),GI50 (SF-268 CNS),TGI (SF-268 CNS),GI50 (SK-MEL-2 melanoma),TGI (SK-MEL-2 melanoma),GI50 (UACC-62 melanoma),TGI (UACC-62 melanoma)
C=C(CN1C(=O)[C@H]2CCCN2C(=O)c2ccccc21)c1ccc(C(=O)O)cc1,> 100000 nM,> 100 µM,> 100000 nM,> 100 µM,> 100000 nM,> 100000 nM,> 100000 nM,> 100 µM,> 100000 nM,> 100 µM,> 100000 nM,> 100 µM,> 100000 nM,> 100 µM,> 100000 nM,> 100 µM,> 100 µM,> 100000 nM,> 100000 nM,> 100 µM
O=C(Nc1cccc(Cl)c1)c1ccc(NC2=C(Cl)C(=O)N(Cc3ccccc3)C2=O)cc1,8610 nM,19.7 µM,33300 nM,> 100 µM,22100 nM,> 57000 nM,1680 nM,3.83 µM,2580 nM,8.69 µM,6080 nM,13.8 µM,9480 nM,24.1 µM,8930 nM,25.3 µM,18.9 µM,> 100000 nM,11600 nM,25.4 µM
COc1ccc(/C=C\c2cc(OC)c(OC)c(OC)c2)cc1OC(=O)c1cccc(Cn2cc(CCOC(=O)[C@H](N)Cc3cn(C)c4ccccc34)nn2)c1,111 nM,> 100 µM,32.2 nM,> 100 µM,350 nM,1550 nM,19.8 nM,1.7 µM,< 10 nM,> 22.4 µM,< 10 nM,18.9 µM,< 10 nM,> 100 µM,29.6 nM,> 100 µM,15.4 µM,> 83500 nM,< 10 nM,24.2 µM
CC1=C2C[C@H]3[C@@H](CC[C@@H]4CC(NS(C)(=O)=O)CC[C@@]43C)[C@@H]2CC[C@@]2(C1)O[C@@H]1C[C@H](C)CN[C@H]1[C@H]2C (some centres undefined),8940 nM,24.2 µM,4260 nM,17.5 µM,2250 nM,4430 nM,14100 nM,28.2 µM,4250 nM,31.6 µM,4000 nM,14 µM,4390 nM,17.3 µM,12100 nM,26.6 µM,6.76 µM,15400 nM,9270 nM,21.8 µM
COc1ncc(-c2ccc3nccc(-c4ccnnc4)c3c2)cc1NS(=O)(=O)c1ccc(F)cc1F,6.51 nM and < 10 nM,0.0791 µM and 0.106 µM,8.82 nM and < 10 nM,1.49 µM and 1.32 µM,5.61 nM and < 10 nM,542 nM and 257 nM,9.97 nM and 13.3 nM,0.275 µM and 0.572 µM,,> 100 µM,9.01 nM and < 10.9 nM,0.763 µM and 0.376 µM,4.32 nM and < 10 nM,2.37 µM and 4.46 µM,12.7 nM and 14.8 nM,> 10 µM and 9.23 µM,0.0194 µM and < 0.01 µM,227 nM and 150 nM,2.17 nM and < 10 nM,0.019 µM and 0.0263 µM
COc1cc2cc(Oc3ccc(NC(=O)Nc4cccc(C(F)(F)F)c4)cc3)c(C)nc2cc1OC,1740 nM,9.24 µM,1470 nM,6.49 µM,1120 nM,2400 nM,2590 nM,50 µM,1730 nM,14 µM,2040 nM,8.07 µM,1390 nM,5.49 µM,2570 nM,15.5 µM,1.28 µM,2870 nM,1840 nM,10.9 µM
